Laboratory results reported in patent publication US12060592B2, “Lov-D acyltransferase mediated acylation” (priority 2009, dated 2024).

These compounds were tested against T1, LovD acyltransferase (Aspergillus terreus, UniProt Q9Y7D1) (assay: LovD acyltransferase mediated acylation: relative activity of thioester acyl donors). Settings: thioester as acyl donor.
T1 sequence (Q9Y7D1 1-413): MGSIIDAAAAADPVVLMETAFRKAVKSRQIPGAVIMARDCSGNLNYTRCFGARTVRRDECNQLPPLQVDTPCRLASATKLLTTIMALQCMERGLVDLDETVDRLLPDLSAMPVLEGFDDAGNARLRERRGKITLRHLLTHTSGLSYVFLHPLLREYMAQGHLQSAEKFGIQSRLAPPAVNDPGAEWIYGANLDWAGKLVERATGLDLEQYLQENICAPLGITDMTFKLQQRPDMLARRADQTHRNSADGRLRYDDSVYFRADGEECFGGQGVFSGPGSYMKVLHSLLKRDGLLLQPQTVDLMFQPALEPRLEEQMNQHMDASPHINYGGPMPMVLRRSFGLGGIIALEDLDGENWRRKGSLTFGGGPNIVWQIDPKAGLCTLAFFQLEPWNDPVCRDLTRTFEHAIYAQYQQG
Format: biochemical
Description: Any one or more compounds shown in Table 1 may be used as thioesters in the methods of the present disclosure. Compound IV is one preferred thioester as its relative activity is high.

Row | SMILES | Relative activity at 24 h (%)
1 | CCC(C)(C)C(=O)SCCC(=O)OC [Compound IV] | ++++ (++++ = 75-100)
2 | CCCCSC(=O)C(C)(C)CC [IX] | +++ (+++ = 10-75)
3 | CCC(C)(C)C(=O)SC(C)C [VIII] | + (+ = 0-1)
4 | CCSC(=O)C(C)(C)CC [VII] | ++ (++ = 1-10)
5 | CCC(C)(C)C(=O)SC [VI] | + (+ = 0-1)
6 | CCC(C)(C)C(=O)SCC(=O)OC [V] | ++ (++ = 1-10)
